A short description of assay [1]: Inhibition of 5'-UUCACGGAGAA[flc] mRNA binding to biotinylated His6-tagged Yersinia pseudotuberculosis CsrA measured by fluorescence polarization assay.
The target in another assay is Carbon storage regulator (Escherichia coli, UniProt P69913). As to the kind of experiment: Inhibition of 5'-AGACAAGGAUGU[flc] mRNA binding to biotinylated His6-tagged Escherichia coli CsrA measured by fluorescence polarization assay.
Assay [2] can be described thus: Inhibition of 5'-UUCACGGAGAA[flc] mRNA binding to biotinylated His6-tagged Yersinia pseudotuberculosis CsrA measured in presence of 5 mM DTT by fluorescence polarization assay.
Assay [3] can be described thus: Binding affinity towards biotinylated His6-tagged Yersinia pseudotuberculosis CsrA measured by Microscale thermophoresis assay (MST).

The source of these data is ChEMBL document CHEMBL5131479, “Phage display-based discovery of cyclic peptides against the broad spectrum bacterial anti-virulence target CsrA” (Eur J Med Chem, 2022).

Where a SMILES comes first, the peptide text is derived from it. Bridges are numbered along the chain shown (N, C = ends). Triazole bridges read from a SMILES are 1,4-linked. [ ]: non-standard residue; d: D form. Ala(indol-2-yl) = N[C@@H](Cc1cc2ccccc2[nH]1)C(=O)O; Dap(N3) = [N-]=[N+]=NC[C@H](N)C(=O)O; Aha = [N-]=[N+]=NCC[C@H](N)C(=O)O; Pra = C#CC[C@H](N)C(=O)O

Carbon storage regulator, sequence (P69913 whole entry): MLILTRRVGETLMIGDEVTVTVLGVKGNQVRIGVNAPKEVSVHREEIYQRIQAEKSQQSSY

As for `CC(=O)N[C@H](C(=O)N[C@H]1CCn2nncc2C[C@@H](C(=O)N[C@@H](Cc2c[nH]c3ccccc23)C(N)=O)NC(=O)[C@H](CC(C)C)NC(=O)[C@H](CCC(=O)O)NC(=O)[C@H](CO)NC1=O)C(C)C`, the concentration for half-maximal inhibition (IC50) was 309 µM in assay [1] and 83.4 µM at Carbon storage regulator.
`CC(=O)N[C@H](C(=O)N[C@H]1Cc2cnnn2CC[C@@H](C(=O)N[C@@H](Cc2c[nH]c3ccccc23)C(N)=O)NC(=O)[C@H](CC(C)C)NC(=O)[C@H](CCC(=O)O)NC(=O)[C@H](CO)NC1=O)C(C)C`: the IC50 in assay [1] stood at 337 µM; at Carbon storage regulator, 51.6 µM.
As for `CC[C@H](C)[C@H](NC(=O)[C@H]1CCCCN1C)C(=O)N[C@H](CCc1nc(C(=O)N[C@@H](Cc2ccc(O)cc2)C[C@H](C)C(=O)O)cs1)C(C)C`, the 50% inhibitory concentration (IC50) in assay [1] came out at 11 µM.
With `CC(=O)N[C@H](C(=O)N[C@H]1Cc2cnnn2C[C@@H](C(=O)N[C@@H](Cc2c[nH]c3ccccc23)C(N)=O)NC(=O)[C@H](CC(C)C)NC(=O)[C@H](CCC(=O)O)NC(=O)[C@H](CO)NC1=O)C(C)C`, the IC50 in assay [1] is 178 µM; at Carbon storage regulator, 48.1 µM.
`CC(=O)N[C@@H](C)C(=O)N[C@H]1CSSC[C@@H](C(=O)N[C@@H](Cc2cc3ccccc3[nH]2)C(N)=O)NC(=O)[C@H](CC(C)C)NC(=O)[C@H](CCC(=O)O)NC(=O)[C@H](CO)NC1=O` (Ac-ACSELC[Ala(indol-2-yl)]-NH2; disulfide 2-6) returned a 50% inhibitory concentration (IC50) in assay [1] of 114 µM.
As to `CC(=O)N[C@H]1CSSC[C@@H](C(=O)N[C@@H](Cc2cc3ccccc3[nH]2)C(N)=O)NC(=O)[C@H](CC(C)C)NC(=O)[C@H](CCC(=O)O)NC(=O)[C@H](CO)NC1=O` (Ac-CSELC[Ala(indol-2-yl)]-NH2; disulfide 1-5), in assay [1], the IC50 was found to be 128 µM.
Same read-out and setting: the value for `CC(=O)N[C@H](C(=O)N[C@H]1CSSC[C@@H](C(=O)N[C@@H](Cc2cc3ccccc3[nH]2)C(N)=O)NC(=O)[C@H](CC(C)C)NC(=O)[C@H](CCC(=O)O)NC(=O)[C@H](C)NC1=O)C(C)C` (Ac-VCAELC[Ala(indol-2-yl)]-NH2; disulfide 2-6) was greater than 1000 µM; that for `CC(=O)N[C@H](C(=O)N[C@H]1CSSC[C@@H](C(=O)N[C@@H](Cc2cc3ccccc3[nH]2)C(N)=O)NC(=O)[C@H](CC(C)C)NC(=O)[C@H](C)NC(=O)[C@H](CO)NC1=O)C(C)C` (Ac-VCSALC[Ala(indol-2-yl)]-NH2; disulfide 2-6) was 22.8 µM.
Same read-out and setting: the value for `CC(=O)N[C@H](C(=O)N[C@H]1CSSC[C@@H](C(=O)N[C@@H](Cc2cc3ccccc3[nH]2)C(N)=O)NC(=O)[C@H](C)NC(=O)[C@H](CCC(=O)O)NC(=O)[C@H](CO)NC1=O)C(C)C` (Ac-VCSEAC[Ala(indol-2-yl)]-NH2; disulfide 2-6) was 57.9 µM; that for `CC(=O)N[C@H](C(=O)N[C@H]1CSSC[C@@H](C(N)=O)NC(=O)[C@H](CC(C)C)NC(=O)[C@H](CCC(=O)O)NC(=O)[C@H](CO)NC1=O)C(C)C` (Ac-VCSELC-NH2; disulfide 2-6) was greater than 1000 µM; that for `CC(=O)N[C@H](C(=O)N[C@H]1CSSC[C@@H](C(=O)N[C@@H](C)C(N)=O)NC(=O)[C@H](CC(C)C)NC(=O)[C@H](CCC(=O)O)NC(=O)[C@H](CO)NC1=O)C(C)C` (Ac-VCSELCA-NH2; disulfide 2-6) was greater than 500 µM.
For `CC(=O)N[C@H](C(=O)N[C@H]1CSSC[C@@H](C(=O)N[C@@H](Cc2cc3ccccc3[nH]2)C(N)=O)NC(=O)[C@H](CC(C)C)NC(=O)[C@H](CCC(=O)O)NC(=O)[C@H](CO)NC1=O)C(C)C` (Ac-VCSELC[Ala(indol-2-yl)]-NH2; disulfide 2-6), the results for the IC50 (in assay [1]; in assay [2]; on Carbon storage regulator) were 6.9 µM, greater than 1000 µM and 182 µM, respectively. Also, in assay [3], the dissociation constant (Kd) turned out to be 10.5 µM.
Molecule `CC(=O)N[C@H](C(=O)N[C@H]1CSSC[C@@H](C(=O)N[C@@H](Cc2cc3ccccc3[nH]2)C(=O)O)NC(=O)[C@H](CC(C)C)NC(=O)[C@H](CCC(=O)O)NC(=O)[C@H](CO)NC1=O)C(C)C` (Ac-VCSELC[Ala(indol-2-yl)]-OH; disulfide 2-6) yielded an IC50 in assay [1] of 17.4 µM.
With `CC(=O)N[C@H](C(=O)N[C@H]1Cn2cc(nn2)C[C@@H](C(=O)N[C@@H](Cc2c[nH]c3ccccc23)C(N)=O)NC(=O)[C@H](CC(C)C)NC(=O)[C@H](CCC(=O)O)NC(=O)[C@H](CO)NC1=O)C(C)C` (Ac-V[Dap(N3)]SEL[Pra]W-NH2; triazole 2-6), the half-maximal inhibitory concentration (IC50) in assay [1] came out at 92.8 µM; on Carbon storage regulator, 6.8 µM.
For `CC(=O)N[C@H](C(=O)N[C@H]1Cc2cn(nn2)CC[C@@H](C(=O)N[C@@H](Cc2c[nH]c3ccccc23)C(N)=O)NC(=O)[C@H](CC(C)C)NC(=O)[C@H](CCC(=O)O)NC(=O)[C@H](CO)NC1=O)C(C)C` (Ac-V[Pra]SEL[Aha]W-NH2; triazole 2-6), in that order: 76 µM and 3.4 µM.
On to `CC(=O)N[C@H](C(=O)N[C@H]1Cc2cn(nn2)C[C@@H](C(=O)N[C@@H](Cc2c[nH]c3ccccc23)C(N)=O)NC(=O)[C@H](CC(C)C)NC(=O)[C@H](CCC(=O)O)NC(=O)[C@H](CO)NC1=O)C(C)C` (Ac-V[Pra]SEL[Dap(N3)]W-NH2; triazole 2-6), for which the results for the 50% inhibitory concentration (IC50) (in assay [1]; on Carbon storage regulator) were 35.3 µM and 4.9 µM, respectively.
In assay [1], `CC(C)C[C@@H]1NC(=O)[C@H](CCC(=O)O)NC(=O)[C@H](CO)NC(=O)[C@@H](NC(=O)[C@@H](N)C(C)C)CSSC[C@@H](C(=O)N[C@@H](Cc2cc3ccccc3[nH]2)C(N)=O)NC1=O` (H-VCSELC[Ala(indol-2-yl)]-NH2; disulfide 2-6) returned a 50% inhibitory concentration (IC50) of 27.6 µM.
Still for that read-out and setting: under Ac-VASELAW-NH2 stands greater than 1000 µM.
